Test results: US9121859B2, “Compounds and methods for determination of FKBP-binding immunosuppressant drugs” (Siemens Healthcare Diagnostics Inc., priority 2012, dated 2015)

How the values were obtained:
[1] = system: monoclonal anti-sirolimus antibody (clone 155-M1); assay: Calculated cross-reactivity of releasing agent with antibody of the sirolimus ACMIA assay; format: binding; conditions: for Calculated antibody cross-reactivity (percent (%) times 100): sirolimus assay, measured at calibrator of 0 ng/mL, measured value/46.7 μg/mL analog; for Cross-reactivity with the sirolimus assay antibody: result in words
Description: (§1) Preparation of anti-sirolimus antibody-β-galactosidase conjugate. Monoclonal anti-sirolimus antibody (clone 155-M1 from Wyeth Pharmaceutical) was conjugated to β-galactosidase using a standard heterobifunctional SMCC (succinimidyl trans-4-(N-maleimidylmethyl)cyclohexane-1-carboxylate) linker according to known techniques. The antibody conjugate solution contained approximately 7.5 μg/mL anti-sirolimus antibody-β-galactosidase conjugate, 30 mg/mL protease free bovine serum albumin, 0.126 mg/mL MgCl2, 0.03 mL/mL of ethylene glycol, 35.14 mg/mL PIPES 1.5 sodium salt, 50 mg/mL NaCl and beta-gal mutein (inactivated β-galactosidase), pH 6.5.
(§2) Anti-sirolimus antibody-β-galactosidase conjugate (50 μL) was added next to each of the reaction vessels and the mixture was held for a period of time (10 to 15 minutes) and at a temperature of 43° C. to allow sirolimus, if present, to react with the antibody reagent. Chrome particles with immobilized sirolimus-biotin conjugate to streptavidin-coated chrome particle were added (50 μL) to each of the reaction vessels and were allowed to bind un-bound conjugate. […] The sirolimus-bound conjugate was detected by transferring the supernatant from each of the reaction vessels to a photometric cuvette and measuring the enzymatic rate of the conjugate in the presence of chlorophenol red-β-D-galactopyranoside (CPRG). The rate for each reaction vessel was measured bichromatically at 577 and 700 nm. The results are summarized in Table 1 under the categories: instrument signal observed for calibrators, drug concentration measured in ng/mL, percent (%) displaced vs. SIRO and calculated antibody cross-reactivity (percent (%) times 100). Cross-reactivity was based on the following: • 1) 70 μL of pretreatment reagent solution was added to the reaction medium versus 15 μL of sample, total reaction mixture volume=305 μL. • 2) 10 μg/mL of SIRO analog was in the pretreatment reagent solution. • 3) 10 μg/mL of SIRO analog from pretreatment reagent is equivalent to 46.7 μg/mL of SIRO analog added from sample (Calculation: 70 μL×10 μg/mL/15 μL=46.7 μg/mL) • 4) Measured sirolimus value at 0 ng/mL calibrator. • 5) Measure value/46.7 is % cross-reactivity.

[2] = system: endogenous specific binding proteins (FKBP) in whole blood; assay: ACMIA assay for sirolimus: release of sirolimus from endogenous binding substances in spiked whole blood by releasing agent; conditions: for Drug concentration measured / Percent (%) displaced vs. SIRO: releasing agent 10 μg/mL
Description: (§3) Testing was carried out using the DIMENSION® RxL analyzer, available from Siemens Healthcare Diagnostics Inc., Newark Del. The instrument was employed using ACMIA immunoassay technology. The ACMIA assay method is described in U.S. Pat. Nos. 7,842,475, 7,186,518, 5,147,529, 5,128,103, 5,158,871, 4,661,408, 5,151,348, 5,302,532, 5,422,284, 5,447,870, and 5,434,051, the disclosures of which are incorporated herein in their entirety. In the embodiment of the ACMIA method used herein and discussed in more detail below, competition between tacrolimus analog on chrome particles and tacrolimus in patient samples for antibody for tacrolimus conjugated to an enzyme (the “conjugate”) is utilized to determine the amount of tacrolimus in patient samples. Conjugate that binds to the tacrolimus analog on chrome particles is removed by magnetic separation. The enzymatic activity from the conjugate remaining in the supernatant is measured and is directly proportional to the amount of tacrolimus in the patient sample. […] The enzymatic activity observed when no chrome particle is present is indicative of the total amount of enzymatic activity in the conjugate.
(§4) Preparation of pretreatment reagent solution. This pretreatment solution was prepared to contain an amount of releasing agent, 6.8 mg/mL PIPES 1.5 sodium salt (buffer), 0.3 mg/mL EDTA disodium (clot prevention agent), 1.0 mg/mL saponin (hemolytic agent), 0.2% PROCLIN® 300 (preservative), 0.024 mg/mL neomycin sulfate (preservative) and 0.99 mg/mL NaN3, pH 6.5. The amount of releasing agent in each of the pretreatment reagent solutions was 10 μg/mL. The releasing agent concentration in the final reaction mixture was equivalent to 46.7 μg/mL of the analog added from the sample.
Preparation of anti-sirolimus antibody-β-galactosidase conjugate. […] The antibody conjugate solution contained approximately 7.5 μg/mL anti-sirolimus antibody-β-galactosidase conjugate, 30 mg/mL protease free bovine serum albumin, 0.126 mg/mL MgCl2, 0.03 mL/mL of ethylene glycol, 35.14 mg/mL PIPES 1.5 sodium salt, 50 mg/mL NaCl and beta-gal mutein (inactivated β-galactosidase), pH 6.5.
Magnetic chrome particle preparation. Sirolimus chrome particles (immunoassay solid phase) were prepared by conjugating sirolimus-biotin conjugate to streptavidin-coated chrome particle (prepared in a manner similar to that described in U.S. Pat. No. 7,842,475). The chrome particle reagent contained approximately 2.5 mg/mL sirolimus chrome particle slurry, 60.8 mg/mL trehalose dihydrate and 7.2 mg/mL CARBOWAX®.
(§5) Preparation of samples. Aliquots of a whole blood pool are spiked with an amount of sirolimus so that the resulting concentration of sirolimus in the whole blood samples in the calibrators is as set forth in Table 1 (0.0, 5.1, 10.1, 20.6 and 31.6 ng/mL). Aliquots of a whole blood pool are spiked with an amount of tacrolimus so that the resulting concentration of […] (0.0, 2.6, 5.3, 11.6 and 30.1 ng/mL).
(§6) Pretreatment of samples. A set of samples was treated as follows: To each sample was added an amount of the pretreatment reagent solution from above for displacing sirolimus in the sample from endogenous specific binding proteins. The samples were incubated at 37° C. for a period of 140 minutes. Subsequently, each sample was subjected to the aforementioned assay, which is further described below; and signal (mAU) was measured and related to a concentration of analyte that represents the amount of free analyte (analyte that is not bound by endogeneous binding substances plus analyte that was displaced from endogeneous binding substances) in the samples.
Assay. The ACMIA assay for sirolimus was carried out as follows: 15 μL of a whole blood sample from above was mixed with the pretreatment reagent solution from above (Displacer) (Table 1) in a vessel on the DIMENSION® RxL analyzer.

[3] = system: monoclonal anti-tacrolimus antibody (clone 1H6); assay: Calculated cross-reactivity of releasing agent with antibody of the tacrolimus ACMIA assay; format: binding; conditions: measured at calibrator of 0 ng/mL
Description: as §1, with “anti-tacrolimus” for “anti-sirolimus”, “1H6, see for example U.S. Pat. No. 7,078,495) is” for “155-M1 from Wyeth Pharmaceutical) was”, “contains” for “contained”
as §2, with “reagent.” for “reagent. Chrome particles with immobilized sirolimus-biotin conjugate to streptavidin-coated chrome particle were added (50 μL) to each of the reaction vessels and were allowed to bind un-bound conjugate.”, “cross-reactivity. […]” for “cross-reactivity.”

[4] = system: endogenous specific binding proteins (FKBP) in whole blood; assay: ACMIA assay for tacrolimus: release of tacrolimus from endogenous binding substances in spiked whole blood by releasing agent; conditions: for Drug concentration measured / Percent (%) displaced vs. SIRO: releasing agent 10 μg/mL
Description: as §3, §4
as §1, with “anti-tacrolimus” for “anti-sirolimus”, “1H6, see for example U.S. Pat. No. 7,078,495) is” for “155-M1 from Wyeth Pharmaceutical) was”, “contains” for “contained”
The chrome particle reagent contained approximately 2.5 mg/mL tacrolimus chrome particle slurry, 60.8 mg/mL trehalose dihydrate and 7.2 mg/mL CARBOWAX®.
as §5, §6
The above format for releasing an analyte (using the concentration of releasing agent (Displacer) shown) and conducting an assay for the analyte was repeated for samples containing tacrolimus.

[5] = sirolimus assay, result in words
[6] = sirolimus calibrator 10.1 ng/mL
[7] = sirolimus calibrator 20.6 ng/mL
[8] = sirolimus calibrator 31.6 ng/mL
[9] = tacrolimus assay, result in words
[10] = tacrolimus calibrator 0.0 ng/mL
[11] = tacrolimus calibrator 2.6 ng/mL
[12] = tacrolimus calibrator 5.3 ng/mL
[13] = tacrolimus calibrator 11.6 ng/mL
[14] = tacrolimus calibrator 30.1 ng/mL

Molecule | Calculated antibody cross-reactivity (percent (%) times 100) [1] [% × 100] | Displacement efficiency compared with mixture of V and VI [2, 5] | Drug concentration measured ([2]; sirolimus calibrator 0.0 ng/mL) [ng/mL] | Drug concentration measured ([2]; sirolimus calibrator 5.1 ng/mL) [ng/mL] | Percent (%) displaced vs. SIRO ([2]; sirolimus calibrator 5.1 ng/mL) [%] | Drug concentration measured [2, 6] [ng/mL] | Percent (%) displaced vs. SIRO [2, 6] [%] | Drug concentration measured [2, 7] [ng/mL] | Percent (%) displaced vs. SIRO [2, 7] [%] | Drug concentration measured [2, 8] [ng/mL] | Percent (%) displaced vs. SIRO [2, 8] [%] | Calculated antibody cross-reactivity (percent (%) times 100) [3] [% × 100] | Drug concentration measured [4, 10] [ng/mL] | Drug concentration measured [4, 11] [ng/mL] | Percent (%) displaced vs. SIRO [4, 11] [%] | Drug concentration measured [4, 12] [ng/mL] | Percent (%) displaced vs. SIRO [4, 12] [%] | Drug concentration measured [4, 13] [ng/mL] | Percent (%) displaced vs. SIRO [4, 13] [%] | Drug concentration measured [4, 14] [ng/mL] | further results
C=CC[C@@H]1/C=C(\C)C[C@H](C)C[C@H](OC)[C@H]2O[C@@](O)(C(=O)C(=O)N3CCCC[C@H]3C(=O)O[C@H](/C(C)=C/[C@@H]3CC[C@@H](O)[C@H](OC)C3)[C@H](C)[C@@H](O)CC1=O)[C@H](C)C[C@@H]2OC [Tacro, tacrolimus] | 0.00 | lower displacement efficiency | -0.1 | 2.6 | 52 | 4.1 | 40 | 7.7 | 38 | 13.0 | 41 | – | – | – | – | – | – | – | – | – | –
CO[C@H]1C[C@@H]2CC[C@@H](C)[C@@](O)(O2)C(=O)C(=O)N2CCCC[C@H]2C(=O)O[C@H]([C@H](C)C[C@@H]2CC[C@@H](O)[C@H](OC)C2)CC(=O)[C@H](C)/C=C(\C)[C@@H](O)[C@@H](OC)C(=O)[C@H](C)C[C@H](C)CCCCCC1C (stereo partly shown) [XI, hydrogenated sirolimus] | 15.56 | lower displacement efficiency | 72.7 | 82.5 | 1622 | 96.4 | 951 | 94.0 | 458 | 85.2 | 269 | 0.06 | 0.3 | 1.8 | 68 | 2.9 | 54 | 5.6 | 48 | 16.0 | Displacement efficiency compared with mixture of V and VI [4, 9]: lower displacement efficiency; Percent (%) displaced vs. SIRO [4, 14]: 53%; Cross-reactivity with the sirolimus assay antibody [1]: higher cross-reactivity
Diels-Alder adducts of 4-phenyl-1,2,4-triazoline-3,5-dione (PTAD) and sirolimus [Mixture V + VI] | 0.29 | – | 1.4 | 5.8 | 114 | 9.7 | 96 | 16.8 | 82 | 27.5 | 87 | 0.13 | 0.6 | 2.9 | 111 | 4.7 | 89 | 9.5 | 82 | 23.5 | Suitability as releasing agent for tacrolimus analyte [4, 9]: suitable as a releasing agents; Percent (%) displaced vs. SIRO [4, 14]: 78%; Suitability as releasing agent for sirolimus analyte [2, 5]: suitable as a releasing agents
Diels-Alder adducts of diethyl azidodicarboxylate (DAC) and sirolimus [Mixture IX + X] | 14.82 | lower displacement efficiency | 69.2 | 93.8 | 1844 | 100.7 | 994 | 119.9 | 584 | 113.0 | 357 | 0.01 | 0.0 | 2.4 | 90 | 4.1 | 78 | 9.2 | 79 | 22.6 | Displacement efficiency compared with mixture of V and VI [4, 9]: lower displacement efficiency; Percent (%) displaced vs. SIRO [4, 14]: 75%; Cross-reactivity with the sirolimus assay antibody [1]: higher cross-reactivity
